We go through 3 molecules from patent US20030175912A1, “Method of producing L-serine by fermentation” (AJINOMOTO CO. INC, priority 1998, published 2003).

In test [1] the test system is Brevibacterium flavum AJ13324 and AJ13327. The experiment in a line: Growth in the presence of azaserine. The class given is cell-based. The conditions noted are these: 0.25 g/L of azaserine. The procedure: More specifically, for example, the term “azaserine resistance” refers to the property that a bacterium grows faster than the wild type in a medium containing azaserine. For example, those strains that form colonies on a solid medium containing 0.25 g/L of azaserine at 30° C. within 4 to 5 days are said to have azaserine resistance.
(§1) To select azaserine resistant strains from NG treated strains using Brevibacterium flavum AJ13377 as a parent strain, NG treated Brevibacterium flavum AJ13377 cells after washed were inoculated on a minimal medium for selection. The minimal medium for selection was a medium that contained 20 g of glucose, 1 g of ammonium sulfate, 1 g of potassium dihydrogen phosphate, 2.5 g of urea, 0.4 g of magnesium sulfate heptahydrate, 0.01 g of iron (II) sulfate heptahydrate, 0.01 g of manganese sulfate tetra- to pentahydrate, 50 μg of biotin, 200 μg of thiamin hydrochloride, 200 μg of nicotinic acid amide, and 250 mg of azaserine per liter of distilled water. The NG treated mutant was incubated in the above-described medium at 30° C. for 5 to 10 days. The cell culture thus obtained was spread on a bouillon agar medium and incubated at 30° C. for 24 hours for colony formation. Azaserine resistant strains were obtained from the strains that formed colonies. The mutants thus obtained included many strains that accumulated L-serine in considerable amounts at high yields. […]

Test [2] has as its system Brevibacterium flavum AJ13325. Put plainly: Growth in the presence of β-(2-thienyl)-DL-alanine. The conditions noted are these: 0.25 g/L of β-(2-thienyl)-DL-alanine. The class given is cell-based. As to the method:
Similarly, the term “β-(2-thienyl)-DL-alanine resistance” refers to the property that a bacterium grows faster than the wild type in a medium containing β-(2-thienyl)-DL-alanine. For example, those strains that form colonies on a solid medium containing 0.25 g/L of β-(2-thienyl)-DL-alanine at 30° C. within 4 to 5 days are said to have β-(2-thienyl)-DL-alanine resistance.
as §1, with “β-(2-thienyl)-DL-alanine” for “azaserine”, “strain,” for “strain, NG treated”, “were NG treated and” for “after”, “before their inoculation” for “were inoculated”, “β-(2-Thienyl)-DL-alanine” for “Azaserine”, “colonies.” for “colonies. The mutants thus obtained included many strains that accumulated L-serine in considerable amounts at high yields.”

Test [3] concerns 3-PGDH derived from a wild type coryneform bacterium (ATCC 14067). The experiment in a line: Feedback inhibition of 3-PGDH by L-serine, enzyme of wild type strain. The class given is biochemical, Brevibacterium flavum. The conditions noted are these: 10 mM of L-serine. The procedure:
(§2) After collecting cells from the culture broth of each strain, the cells were washed twice with physiological saline and suspended in 50 mM sodium phosphate buffer (pH 7.0) containing 2 mM dithiothreitol. After ice cooling, the suspension was subjected to a sonicator to fragment the cells and the resulting liquid was ultracentrifuged. The ultracentrifugaton was run at 45,000 rpm for 1 hour to obtain a crude enzyme solution.
(§3) The enzyme activity of 3-PGDH was measured by the method of Salach H. J. et al. (Method in Enzymology, vol 9, 216-220 (1966)).
(§4) More specifically, 0.4 ml of 0.015 M NAD, 0.12 ml of 0.25 M EDTA (pH 9, NaOH), 0.1 ml of 0.05 M glutathione (pH 6, KOH), 0.5 ml of 1 M hydrazine (pH 9, acetate), 0.6 ml of 1 M Tris (pH 9, HCl), a suitable concentration of L-serine (0 to 40 mM), and water to make 2.3 ml, warmed to 25° C. in advance, were added. Then, 0.2 ml of the crude enzyme solution was added and the temperature was kept the same for 5 minutes. Thereafter, 0.5 ml of 0.1 M 3-PGA (3-phosphoglycerate disodium salt, pH 7, NaOH) was added. After stirring, the absorbance at 340 nm of the reaction mixture was measured for 30 seconds. The reaction was carried out at 25° C.
(§5) For the measurement of activity, Hitachi U-2000A spectrophotometer was used.

The test system of test [4] is 3-PGDH derived from Brevibacterium flavum AJ13327. Put plainly: Feedback inhibition of 3-PGDH by L-serine, enzyme of AJ13327. The class given is biochemical. As to the method:
as §2, §3
[…] Then, 0.2 ml of the crude enzyme solution was added and the temperature was kept the same for 5 minutes. Thereafter, 0.5 ml of 0.1 M 3-PGA (3-phosphoglycerate disodium salt, pH 7, NaOH) was added. After stirring, the absorbance at 340 nm of the reaction mixture was measured for 30 seconds. The reaction was carried out at 25° C.
as §5

For test [5], the system named is 3-PGDH derived from AJ13377 strain. The experiment in a line: Feedback inhibition of 3-PGDH by L-serine, enzyme of AJ13377. Format: biochemical, Brevibacterium flavum. The conditions noted are these: compared with wild type strain ATCC 14067; FIG. 1. The procedure: as §2, §3, §4, §5
Test [6] has as its system 3-PGDH derived from AJ13324 strain. The experiment in a line: Feedback inhibition of 3-PGDH by L-serine, enzyme of AJ13324. The class given is biochemical, Brevibacterium flavum. The conditions noted are these: compared with AJ13377; FIG. 1. As to the method:
as §2, §3, §4, §5

For test [7], the system named is 3-PGDH derived from AJ13325 strain. Put plainly: Feedback inhibition of 3-PGDH by L-serine, enzyme of AJ13325. Format: biochemical, Brevibacterium flavum. The conditions noted are these: compared with AJ13324; FIG. 1. As to the method:
as §2, §3, §4, §5

With `[N-]=[N+]=CC(=O)OC[C@H](N)C(=O)O` [azaserine], the “growth of resistant strains in the presence of azaserine” value in test [1] is on record as “able to grow”.

Consider `NC(Cc1cccs1)C(=O)O` (racemic) [β-(2-thienyl)-DL-alanine], for which the “growth of resistant strains in the presence of β-(2-thienyl)-DL-alanine” value in test [2] was “able to grow”.

Consider `N[C@@H](CO)C(=O)O` [L-serine], for which the “inhibition of 3-PGDH activity by L-serine” value in test [3] was “almost completely inhibited”. The “feedback inhibition of 3-PGDH by L-serine” value in test [4] (80 mM L-serine, FIG. 1) is reported as “completely desensitized”. The “3-PGDH activity retained in the presence of L-serine” value in test [4] (80 mM of L-serine, relative to activity in the absence of L-serine) is recorded as around 100%. Besides, the “L-serine sensitivity of 3-PGDH” value in test [5] was “relieved of L-serine sensitivity”; in test [6], “more relieved of L-serine sensitivity”; in test [7], “of the same level as the AJ13324 strain”.
